# In PMC5291303 (Science translational medicine, 2016):
# pIC50: −log10 of the molar value.
# Columns and labels:
# [1] = tested on: MIA PaCa-2 model of pancreatic ductal adenocarcinoma; assay: MIA PaCa-2 subcutaneous xenograft efficacy; format: in vivo, mice
# [2] = Toxicity studies to determine NOAEL; format: in vivo, mice; conditions: plasma AUC at NOAEL vs at MED
# [3] = tested on: MDA-MB-231-LM2 breast cancer metastases; assay: MDA-MB-231-LM2 experimental lung metastasis model; format: in vivo, SCID/beige mice; conditions: for Tumor-free animals: up to 106 days after initial treatment
# [4] = tested on: RS4;11 model of adult Philadelphia chromosome–negative ALL; assay: RS4; format: in vivo, mice; conditions: P = 0.0028 tumor cells; P = 0.0024 survival
# [5] = tested on: human pancreatic cancer PDX; assay: Pancreatic cancer patient-derived xenograft; format: in vivo, SCID/beige mice; conditions: for Effect on tumor growth: gemcitabine 100 mg/m^2, DZ-2384 36 mg/m^2, alone or combined
# [6] = tested on: Rgs16∷GFP;KIC pancreatic model; assay: Rgs16::GFP; format: in vivo, mice
# [7] = tested on: caudal, digital and tibial nerves; dorsal root ganglia, sciatic nerve; assay: Peripheral neuropathy study; format: in vivo, Sprague-Dawley rats; conditions: for Caudal and digital NCV / Tibial nerve onset latency / Caudal and digital NCV after recovery / Histology of dorsal root ganglia and sciatic nerve: at MTD (DZ-2384 30 mg/m^2, docetaxel 120 mg/m^2)
# Pharmacokinetics in rats = format: in vivo, Sprague-Dawley rats; conditions: rat; 12 mg/m^2
# H1299 cells [8] = assay: Growth inhibition of H1299 cells; format: cell-based
# HeLa cells = assay: 3-day cell viability assay, HeLa; format: cell-based
# [9] = tested on: U-2 osteosarcoma (OS) cells; assay: 3-day viability assay, U-2 OS; format: cell-based
# [10] = tested on: E18 rat primary cortical neurons; assay: IC50 in primary cortical neurons; format: cell-based
# [11] = tested on: primary rat cortical neurons; assay: Axonal microtubule immunostaining in primary neurons; format: cell-based; conditions: 1 hour; 0.3 to 100 nM; DZ-2384 up to 100 nM, vinorelbine starting at 0.3 nM
# [12] = tested on: microtubules in LLC-PK1 cells expressing GFP–α-tubulin; assay: Microtubule dynamic instability in live cells; format: cell-based; conditions: IC80: 24 nM DZ-2384, 11 nM vinorelbine; mean ± SD
# tubulin [13] = assay: Surface plasmon resonance binding and competition; conditions: tubulin (3 μM) preincubated with competitor
# [14] = tested on: microtubule polymer mass in H1299 cells; assay: Microtubule sedimentation assay; format: cell-based; conditions: 4 hours, increasing concentrations
# purified tubulin [15] = assay: Reconstituted single molecule assay for microtubule dynamics; format: biochemical; conditions: for Growth and shrinkage rates: 100 nM DZ-2384
# purified tubulin [16] = assay: Electron microscopy of tubulin oligomer curvature; format: biochemical; conditions: 10 μM; compared with vinblastine
# H1299 cells [17] = assay: DNA content and caspase-3 activation in H1299 cells; format: cell-based
# [18] = tested on: U-2 OS osteosarcoma cells; assay: Interphase microtubule immunostaining in U-2 OS cells; format: cell-based; conditions: unsynchronized, IC80 (300 nM each), 2 hours
# [19] = tested on: U-2 OS cells stably expressing an EB3-mCherry fusion protein; assay: Growing microtubule ends in EB3-mCherry U-2 OS cells; format: cell-based; conditions: equipotent (IC80) concentrations
# [20] = all doses tested, each xenograft model
# [21] = Plasma exposure by LC-MS/MS at MED and NOAEL doses
# tubulin [22] = conditions: cited from earlier work
# in vivo = conditions: mouse
# [23] = relative to untreated microtubules
structure (smiles),measurement,setting,value
CC(C)[C@H](O)C(=O)N[C@H]1Cc2ccc3c(c2)[C@]2(C4=C(c5nc(CO)co5)N=C(O4)[C@H](C(C)(C)C)NC1=O)c1cc(F)ccc1N[C@@H]2O3 [DZ-2384],Tumor-free animals,"[1]; 9 mg/m^2, ~3 months after treatment",all mice were tumor-free
same,Tumor response,[1]; 4 weekly bolus i.v. administrations,complete tumor regression
same,Safety margin (range over MIA PaCa-2 and HT-29 models),[2],24.4 to 53.5
same,Tumor-free animals,[3]; 4.5 mg/m^2,1 of 5
same,Tumor-free animals,[3]; 18 mg/m^2,2 of 8
same,Survival,"[3]; all treated groups, P < 0.0001 vs vehicle",significantly increased the survival
same,Effect on lung metastases,[3]; starting at the lowest dose tested,regression of all lung metastases
same,Dose reducing circulating tumor cells (day 23) and increasing survival,[4],≤ 0.7 mg/m^2
same,Deaths,[5]; day 29,One animal inexplicably died
same,Effect on tumor growth,[5],insignificant effects on tumor growth
same,Body weight loss after the first dose,[5]; then quickly recovered,11%
same,Tolerability of 30 mg/m^2,[6]; administered on P23 (no mortality),tolerated
same,NCV and onset latency,"[7]; day 24, 12 mg/m^2, vs age-matched controls",normal NCV and onset latency
same,Caudal and digital NCV,[7]; day 24,slowing of the caudal and distal digital NCV
same,Tibial nerve onset latency,[7]; day 24,the tibial nerve was unaffected
same,Histology of lumbar dorsal root ganglia and sciatic nerve,"[7]; day 44, 12 mg/m^2",no changes
same,Caudal and digital NCV after recovery,[7]; day 44,remained slow
same,Histology of dorsal root ganglia and sciatic nerve,[7]; day 44,did not find histological evidence of neurotoxicity
same,AUC,Pharmacokinetics in rats,4371 ng·h/mL
same,pIC50,H1299 cells [8]; H1299 cells,7.92
same,IC80,HeLa cells; 3-day cell viability assay,4 nM
same,IC80,"[9]; U-2 OS, 3-day",300 nM
same,pIC50,[10],7.37
same,"Axonal morphology, width and tubulin staining",[11],minimal qualitative differences
same,%Time per phase Growth,[12],42.1 ± 13.1 (0.9109) %
same,%Time per phase Pause,[12],32.7 ± 12.1 (0.7422) %
same,%Time per phase Shrink,[12],25.2 ± 1.4 (0.3079) %
same,Dynamicity,[12],10.4 ±1.4 (0.0335) μm/min
same,Growth Distance,[12],2.4 ± 0.3 (0.0631) μm
same,Growth Duration,[12],19.0 ± 6.2 (0.2666) s
same,Growth Rate,[12],8.3 ±1.6 (0.0164) μm/min
same,Shrink Distance,[12],4.7 ± 0.9 (0.3899) μm
same,Shrink Duration,[12],10.6 ± 1.3 (0.6087) s
same,Shrink Rate,[12],27.7 ± 2.2 (0.6081) μm/min
same,Competition of tubulin binding to biotinylated DZ-2384 surfaces,tubulin [13],inhibited its binding
same,Microtubule polymer mass,[14],decrease in microtubule polymer mass
same,Growth and shrinkage rates,purified tubulin [15]; [23],decreased by about twofold
same,Rescue frequency,purified tubulin [15]; P = 0.0236 at 50 nM,twice the rate seen with vinorelbine
same,Catastrophe frequencies,purified tubulin [15]; [23],slightly increased
same,Protofilament curvature (κ),purified tubulin [16],straighter
same,Start of accumulation in G2-M phase,H1299 cells [17],4 to 8 h
same,Start of apoptosis (procaspase-3 cleavage),H1299 cells [17]; after treatment,16 h
same,Interphase microtubule network,[18],microtubules were present
same,Number of growing microtubules,[19],decreased the number of growing microtubules
same,Body weight loss,[20],less than 10%
same,MED Exposure [AUC0-α],[21]; mouse plasma AUC at the MED of the HT-29 model,344 ng·h/mL
same,MED Exposure [AUC0-α],[21]; mouse plasma AUC at the MED of the MIA PaCa-2 model,157 ng·h/mL
same,NOAEL Exposure [AUC0-α],[21]; mouse plasma AUC at the NOAEL dose,8398 ng·h/mL
"CCC1=C[C@@H]2CN(C1)Cc1c([nH]c3ccccc13)[C@@](C(=O)OC)(c1cc3c(cc1OC)N(C)[C@H]1[C@@](O)(C(=O)OC)[C@H](OC(C)=O)[C@]4(CC)C=CCN5CC[C@]31[C@@H]54)C2 [Vinorelbine, vinorelbine, reference compound]",Safety margin (range over MIA PaCa-2 and HT-29 models),[2],0.7 to 1.0
same,pIC50,"H1299 cells [8]; Homo sapiens, NCI-H1299",7.82
same,IC80,"HeLa cells; Homo sapiens, 72 h",11 nM
same,IC80,"[9]; Homo sapiens, U2OS, 72 h",300 nM
same,"Axonal morphology, width and tubulin staining",[11],thinner and/or fragmented axons
same,%Time per phase Growth,[12],13.1 ± 7.3 (0.0074) %
same,%Time per phase Pause,[12],48.4 ± 8.1 (0.0141) %
same,%Time per phase Shrink,[12],38.6 ± 8.6 (0.1068) %
same,Dynamicity,[12],10.2 ±1.3 (0.0165) μm/min
same,Growth Distance,[12],2.1 ± 0.2 (0.0036) μm
same,Growth Duration,[12],17.5 ± 5.8 (0.4242) s
same,Shrink Distance,[12],6.4 ± 1.4 (0.2345) μm
same,Shrink Duration,[12],17.6 ± 6.6 (0.1570) s
same,Shrink Rate,[12],24.6 ± 3.5 (0.1242) μm/min
same,Competition of tubulin binding to biotinylated DZ-2384 surfaces,tubulin [13],blocked its binding
same,Microtubule polymer mass,[14],like with vinorelbine
same,Growth and shrinkage rates,purified tubulin [15]; [23],Comparable growth and shrinkage rate decreases
same,Interphase microtubule network,[18],intact microtubules were difficult to observe
same,Number of growing microtubules,[19],vastly decreasing the number of growing microtubules
same,Body weight loss,[20],less than 10%
same,Affinity compared to vinblastine,tubulin [22],lower affinity
same,AUC,in vivo,3380 ng·h/mL
same,AUC,"[21]; mouse, in vivo, 30 mg/m^2",2310 ng·h/mL
"CC(=O)O[C@@]12CO[C@@H]1C[C@H](O)[C@@]1(C)C(=O)[C@H](O)C3=C(C)[C@@H](OC(=O)[C@H](O)[C@@H](NC(=O)OC(C)(C)C)c4ccccc4)C[C@@](O)([C@@H](OC(=O)c4ccccc4)[C@H]21)C3(C)C [docetaxel, reference compound]",Caudal and digital NCV,[7]; day 24,decrease in NCV in caudal and digital nerves
same,Tibial nerve onset latency,[7]; day 24,increase in onset latency in tibial nerves
same,Caudal and digital NCV after recovery,[7]; day 44,no improvement in either caudal or digital NCV
same,Histology of dorsal root ganglia and sciatic nerve,[7]; day 44,incomplete recovery of the damaged dorsal root ganglia
same,Microtubule polymer mass,[14],increased microtubule polymer mass
"Nc1ccn([C@@H]2O[C@H](CO)[C@@H](O)C2(F)F)c(=O)n1 [gemcitabine, reference compound]",Effect on tumor growth,[5],insignificant effects on tumor growth
same,Clinical observations,[6]; weanling mice,not with gemcitabine alone
